In US9265253B2, “Use of macrocyclic picolinamides as fungicides” (DOW AGROSCIENCES LLC, priority 2013, dated 2016) one finds pest or weed control data, which are given here for five compounds.

What all share (assay type): in vivo
The test system of one assay is Leptosphaeria nodorum. The assay can be described thus: Wheat Glume Blotch (LEPTNO) disease control. The following applies: Parastagonospora nodorum, topical, 24 h, 1 Day Protectant, read-out: Disease Control LEPTNO 1 DP. The protocol:
Technical grades of materials were dissolved in acetone, which were then mixed with nine volumes of water containing 110 ppm Triton X-100. The fungicide solutions were applied onto wheat seedlings using an automated booth sprayer to run-off. All sprayed plants were allowed to air dry prior to further handling. All fungicides were evaluated using the aforementioned method for their activity vs. all target diseases. Wheat leaf blotch and brown rust activity were also evaluated using track spray applications, in which case the fungicides were formulated as EC formulations, containing 0.1% Trycol 5941 in the spray solutions. Wheat plants (variety Yuma) were grown from seed in a greenhouse in 50% mineral soil/50% soil-less Metro mix until the first leaf was fully emerged, with 7-10 seedlings per pot. These plants were inoculated with an aqueous spore suspension of Septoria tritici either prior to or after fungicide treatments. After inoculation the plants were kept in 100% relative humidity (one day in a dark dew chamber followed by two to three days in a lighted dew chamber at 20° C.) to permit spores to germinate and infect the leaf. The plants were then transferred to a greenhouse set at 20° C. for disease to develop. When disease symptoms were fully expressed on the 1st leaves of untreated plants, infection levels were assessed on a scale of 0 to 100 percent disease severity. Percent disease control was calculated using the ratio of disease severity on treated plants relative to untreated plants. Wheat plants (variety Yuma) were grown from seed in a greenhouse in 50% mineral soil/50% soil-less Metro mix until the first leaf was fully emerged, with 7-10 seedlings per pot. These plants were inoculated with an aqueous spore suspension of Leptosphaeria nodorum 24 hr after fungicide treatments. After inoculation the plants were kept in 100% relative humidity (one day in a dark dew chamber followed by two days in a lighted dew chamber at 20° C.) to permit spores to germinate and infect the leaf. The plants were then transferred to a greenhouse set at 20° C. for disease to develop. Fungicide formulation, application and disease assessment followed the procedures as described in the Example A.

The test system of another assay is Venturia inaequalis. The assay can be described thus: Apple Scab (VENTIN) disease control. Conditions: Venturia inaequalis, topical, 24 h, 1 Day Protectant, read-out: Disease Control VENTIN 1 DP. The protocol: Technical grades of materials were dissolved in acetone, which were then mixed with nine volumes of water containing 110 ppm Triton X-100. The fungicide solutions were applied onto wheat seedlings using an automated booth sprayer to run-off. All sprayed plants were allowed to air dry prior to further handling. All fungicides were evaluated using the aforementioned method for their activity vs. all target diseases. Wheat leaf blotch and brown rust activity were also evaluated using track spray applications, in which case the fungicides were formulated as EC formulations, containing 0.1% Trycol 5941 in the spray solutions. Wheat plants (variety Yuma) were grown from seed in a greenhouse in 50% mineral soil/50% soil-less Metro mix until the first leaf was fully emerged, with 7-10 seedlings per pot. These plants were inoculated with an aqueous spore suspension of Septoria tritici either prior to or after fungicide treatments. After inoculation the plants were kept in 100% relative humidity (one day in a dark dew chamber followed by two to three days in a lighted dew chamber at 20° C.) to permit spores to germinate and infect the leaf. The plants were then transferred to a greenhouse set at 20° C. for disease to develop. When disease symptoms were fully expressed on the 1st leaves of untreated plants, infection levels were assessed on a scale of 0 to 100 percent disease severity. Percent disease control was calculated using the ratio of disease severity on treated plants relative to untreated plants. Apple seedlings (variety McIntosh) were grown in soil-less Metro mix, with one plant per pot. Seedlings with two expanding young leaves at the top (older leaves at bottom of the plants were trimmed) were used in the test. Plants were inoculated with a spore suspension of Venturia inaequalis 24 hr after fungicide treatment and kept in a 22° C. dew chamber with 100% RH for 48 hr, and then moved to a greenhouse set at 20° C. for disease to develop. Fungicide formulation, application and disease assessment on the sprayed leaves followed the procedures as described in the Example A.

The subject of a further assay is Rhyncosporium secalis. As to the kind of experiment: Barley Scald (RHYNSE) disease control. Conditions: Hordeum vulgare, 24 h, 1 Day Protectant, read-out: Disease Control RHYNSE 1 DP. The protocol:
Technical grades of materials were dissolved in acetone, which were then mixed with nine volumes of water containing 110 ppm Triton X-100. The fungicide solutions were applied onto wheat seedlings using an automated booth sprayer to run-off. All sprayed plants were allowed to air dry prior to further handling. All fungicides were evaluated using the aforementioned method for their activity vs. all target diseases. Wheat leaf blotch and brown rust activity were also evaluated using track spray applications, in which case the fungicides were formulated as EC formulations, containing 0.1% Trycol 5941 in the spray solutions. Wheat plants (variety Yuma) were grown from seed in a greenhouse in 50% mineral soil/50% soil-less Metro mix until the first leaf was fully emerged, with 7-10 seedlings per pot. These plants were inoculated with an aqueous spore suspension of Septoria tritici either prior to or after fungicide treatments. After inoculation the plants were kept in 100% relative humidity (one day in a dark dew chamber followed by two to three days in a lighted dew chamber at 20° C.) to permit spores to germinate and infect the leaf. The plants were then transferred to a greenhouse set at 20° C. for disease to develop. When disease symptoms were fully expressed on the 1st leaves of untreated plants, infection levels were assessed on a scale of 0 to 100 percent disease severity. Percent disease control was calculated using the ratio of disease severity on treated plants relative to untreated plants. Barley seedlings (variety Harrington) were propagated in soil-less Metro mix, with each pot having 8 to 12 plants, and used in the test when first leaf was fully emerged. Test plants were inoculated by an aqueous spore suspension of Rhyncosporium secalis 24 hr after fungicide treatments. After inoculation the plants were kept in a dew room at 20° C. with 100% relative humidity for 48 hr. The plants were then transferred to a greenhouse set at 20° C. for disease to develop. Fungicide formulation, application and disease assessment on the sprayed leaves followed the procedures as described in the Example A.

For assay [1], the system named is Magnaporthe grisea; Anamorph: Pyricularia oryzae. As to the kind of experiment: whole plant or invertebrate. The following applies: Pyricularia oryzae, topical, 24 h, read-out: Disease Control PYRIOR 1 DP.

For `CCOCC(=O)OCOc1c(OC)ccnc1C(=O)N[C@H]1CCC[C@H](Cc2ccc(F)cc2)[C@@H](OCC2CC2)[C@H](C)OC1=O` [Compound F164], the pest or weed control at 100 ppm (with Leptosphaeria nodorum; in the assay on Venturia inaequalis; in the assay on Rhyncosporium secalis; in assay [1]) was 80 to 100% in each case.

In the case of `CCOCC(=O)OCOc1c(OC)ccnc1C(=O)N[C@H]1CCC[C@H](Cc2ccccc2)[C@@H](OCC(C)C)[C@H](C)OC1=O` [Compound F172], the pest or weed control at 100 ppm lay in the range of 80 to 100% in the assay with Leptosphaeria nodorum, 0 to 80% in the assay on Venturia inaequalis, 80 to 100% in the assay on Rhyncosporium secalis and 80 to 100% in assay [1].

For `CCCO[C@@H]1[C@@H](Cc2ccccc2)CCC[C@H](NC(=O)c2nccc(OC)c2OCOC(=O)COCC)C(=O)O[C@H]1C` [Compound F174], the pest or weed control at 100 ppm (in the assay with Leptosphaeria nodorum; in the assay on Venturia inaequalis; with Rhyncosporium secalis; in assay [1]) was 80 to 100% throughout.

In the case of `CCOCC(=O)OCOc1c(OC)ccnc1C(=O)N[C@H]1CCC[C@H](CCOC)[C@@H](Oc2ccccc2)[C@H](C)OC1=O` [Compound F183], the pest or weed control at 100 ppm in the assay with Leptosphaeria nodorum is 80 to 100%; with Venturia inaequalis, 0 to 80%; with Rhyncosporium secalis it was 80 to 100%; in assay [1] it was 80 to 100%.

Take `CCOCC(=O)OCOc1c(OC)ccnc1C(=O)N[C@H]1CCC[C@H](Cc2ccc(F)cc2F)[C@@H](OC(=O)c2ccco2)[C@H](C)OC1=O` [Compound F193]: the pest or weed control at 100 ppm (with Leptosphaeria nodorum; in the assay on Venturia inaequalis; with Rhyncosporium secalis; in assay [1]) was 80 to 100% in each case.
